Laboratory results taken from patent US20050180935A1, “Deodorant cosmetic composition comprising a combination of zinc gluconate and an antiperspirant aluminum salt” (priority 2003, published 2005).

Experiment: deodorant efficacy test: odor intensity of incubated sweat rated by expert panel
Parameters: species or system human
Conditions: 24 h at 37° C, vs control sweat sample
Protocol: Collections of underarm sweat were taken in a sauna from 6 volunteers; the samples of individual sweat were stored in ice for a few hours and were initially almost odorless. They were mixed together and divided into 1 ml aliquots. The active agents were added to the aliquots, which were then incubated in an oven at 37° C. After incubation for 24 hours, a panel of experts evaluated the intensity of the odor in comparison with a control sample: 1 ml of sweat incubated without an active agent. The intensity was evaluated on a scale ranging from 0 (no odor) to 4 (very strong odor).
The results below are expressed as a percentage of variation of the intensity of the odor in comparison with the control sweat sample (mean of the percentages of variation at T24h).

Compound: zinc gluconate [(A)]
- % of reduction in the intensity of the odor (0.5 mg AM/ml of sweat): −19%

Compound: aluminum chlorohydrate [ACH]
- % of reduction in the intensity of the odor (0.1 mg AM/ml of sweat): −37%

Compound: Oc1cc(Cl)ccc1Oc1ccc(Cl)cc1Cl [(B), 2,4,4′-trichloro-2′-hydroxydiphenyl ether]
- % of reduction in the intensity of the odor (0.4 mg AM/ml of sweat): −49%

Compound: zinc ricinoleate [(C)]
- % of reduction in the intensity of the odor (0.3 mg AM/ml of sweat): −4%
